Values joined by “and” are separate entries in the source; they are usually repeats but may differ in a detail not shown here. Identical values can stand only once. Like-named read-outs stand apart in the source and are kept apart here. A value given as a limit tells only on which side of the number the result lay.

Data on two molecules can be found in patent publication US8063008B2, “Enzymatic production of peracids using perhydrolytic enzymes” (E. I. du Pont de Nemours and Company, priority 2005, dated 2011).

Experiment [1] is described as follows: Enzymatic perhydrolysis of propyl acetate at pH 6.5 (Example 11, comparative). Format: biochemical. The following applies: pH 6.5, 2 mg enzyme. The protocol:
Into a 4-mL glass vial with stir bar was added 2 mg of one of the following enzymes: acetylcholinesterase (Sigma, C-2888), Lipase G “Amano” 50 (Amano), or Chirazyme L2, lyo. (C. antartica lipase B, BioCatalytics) dissolved in 0.050 mL of 50 mM potassium phosphate buffer (pH 6.5). To the vial was then added either a) 0.930 mL of a solution containing 50 mM potassium phosphate buffer (pH 6.5) and 215 mM propyl acetate, followed by 0.021 mL 30% hydrogen peroxide (200 mM final hydrogen peroxide concentration) or b) 0.900 mL of a solution containing 278 mM triacetin in 50 mM potassium phosphate buffer (pH 6.5), 0.024 mL of 50 mM potassium phosphate buffer (pH 6.5), and 0.026 mL 30% hydrogen peroxide (250 mM final concentration). […] A portion of the resulting filtrate was diluted 1:10 with dd water and analyzed for hydrogen peroxide, and the remaining portion of the filtrate was directly analyzed for peracid using the HPLC assay method (Table 12).

In experiment [2] the target is protease subtilisin from Bacillus amyloliquefaciens (Bacillus amyloliquefaciens, UniProt P00782). The note with it: cited from earlier work.
Sequence of protease subtilisin from Bacillus amyloliquefaciens (P00782 108-382): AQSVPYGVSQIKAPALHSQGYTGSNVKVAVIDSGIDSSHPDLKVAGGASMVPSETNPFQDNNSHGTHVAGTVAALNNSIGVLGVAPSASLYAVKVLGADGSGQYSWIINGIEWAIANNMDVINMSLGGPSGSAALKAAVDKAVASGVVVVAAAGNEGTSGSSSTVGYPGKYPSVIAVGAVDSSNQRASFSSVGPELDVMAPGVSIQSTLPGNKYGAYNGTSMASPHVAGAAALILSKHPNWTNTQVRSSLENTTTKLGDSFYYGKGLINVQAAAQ
For the next experiment, the system named is E. coli ATCC 11229. In words: Determination of Minimum Biocidal Concentration (MBC), XTT reduction inhibition (Example 21). In kind it is cell-based. The note with it: for replicate OD (450 nm): replicates 1-8. From the text: The method described by J. Gabrielson, et al. (J. Microbiol. Methods 50: 63-73 (2002)) was employed for determination of the Minimum Biocidal Concentration (MBC) of peracids, or for determination of the MBC of hydrogen peroxide and enzyme substrates. The assay method is based on XTT reduction inhibition, where XTT ((2,3-bis[2-methoxy-4-nitro-5-sulfophenyl]-5-[(phenylamino)carbonyl]-2H-tetrazolium, inner salt, monosodium salt) is a redox dye that indicates microbial respiratory activity by a change in optical density (OD) measured at 490 nm or 450 nm. However, there are a variety of other methods available for testing the activity of disinfectants and antiseptics including, but not limited to viable plate counts, direct microscopic counts, dry weight, turbidity measurements, absorbance, and bioluminescence (see, for example Brock, Semour S., Disinfection, Sterilization, and Preservation, 5th edition, Lippincott Williams & Wilkins, Philadelphia, Pa., USA; 2001).
The filtered enzyme-generated product mixture was diluted 1:5 with sterile water, and the resulting solution was further diluted with sterile water in four 1:1 serial dilutions to obtain the concentrations of PAA and hydrogen peroxide listed in Table 22.
The 1:5 dilution and four serial dilutions were evaluated for biocidal activity by mixing 0.100 mL of the PAA-containing solution with 0.100 mL of an inoculum containing 2.7×10^6 CFU/mL of E. coli ATCC 11229 (American Type Culture Collection, Manassas, Va.) in Millers LB broth diluted with Butterfield Buffer; eight replicates of each mixture were contained in individual wells of a sterile 96-well microtiter plate. After the resulting cell suspensions were allowed to stand for 10 minutes at room temperature, they were tested for viability using the growth indicator XTT (2,3-bis[2-methoxy-4-nitro-5-sulfophenyl]-5-[(phenylamino)carbonyl]-2H-tetrazolium, inner salt, monosodium salt; CAS RN 111072-31-2) according to the method of Gabrielson et al. (J. Microbiol. Methods, 50:63-73 (2002)).
Separately, the cell inoculum was treated with sterile solutions of triacetin (Table 24) or hydrogen peroxide in 50 mM phosphate buffer (pH 6.5) (Table 25) at the concentrations present in each of the biocide dilutions in Table 23 to determine the MBC for these components of the biocide solution.

For acetyl cholinesterase, in experiment [1] (5 min), the “propyl acetate (200 mM), H2O2 (200 mM) peracetic acid (ppm), 5 min” value is on record as 0 ppm. Also, in experiment [1] (30 min), the “propyl acetate (200 mM), H2O2 (200 mM) peracetic acid (ppm), 30 min” value came out at 0 ppm.
For `OO` [Hydrogen Peroxide, hydrogen peroxide], the “inactivation of the protease subtilisin” value in experiment [2] (0.1 M hydrogen peroxide, in less than 6 minutes) is more than 80%; in experiment [2] (1.0 M hydrogen peroxide, in less than 4 minutes), more than 80%. In addition, the MBC in the experiment with E. coli ATCC 11229 (Escherichia coli, ATCC11229, 10 min, E. coli ATCC 11229, 1.35×10^6 CFU/mL, 10 minutes at room temperature, XTT, six-log kill, read-out: Minimum Biocidal Concentration (MBC)) is more than 170 mg/L. Moreover, the “blank-corrected mean OD” value was 1.710 with E. coli ATCC 11229 (H2O2 42.5 ppm); 1.466 with E. coli ATCC 11229 (H2O2 85.1 ppm); 0.005 in the experiment with E. coli ATCC 11229 (H2O2 170.1 ppm); 0.009 in the experiment on E. coli ATCC 11229 (H2O2 340.2 ppm); 0.016 with E. coli ATCC 11229 (H2O2 680.5 ppm). The “mean replicate OD (450 nm)” value in the experiment with E. coli ATCC 11229 (H2O2 42.5 ppm) was determined as 2.134; in the experiment on E. coli ATCC 11229 (H2O2 85.1 ppm), 1.890; in the experiment on E. coli ATCC 11229 (H2O2 170.1 ppm), 0.4295; with E. coli ATCC 11229 (H2O2 340.2 ppm), 0.433; in the experiment with E. coli ATCC 11229 (H2O2 680.5 ppm), 0.440. For the same molecule, the “replicate OD (450 nm)” value in the experiment with E. coli ATCC 11229 (H2O2 42.5 ppm) is 2.007 and 2.027 and 1.971 and 2.117 and 2.666 and 2.170 and 2.082 and 2.034; in the experiment with E. coli ATCC 11229 (H2O2 85.1 ppm), 1.889 and 1.815 and 1.795 and 1.962 and 2.153 and 1.880 and 1.793 and 1.834; in the experiment with E. coli ATCC 11229 (H2O2 170.1 ppm), 0.435 and 0.402 and 0.424 and 0.462 and 0.414 and 0.401 and 0.422 and 0.470; with E. coli ATCC 11229 (H2O2 340.2 ppm) it was 0.423 and 0.439 and 0.425 and 0.432 and 0.452 and 0.440 and 0.428 and 0.424; in the experiment with E. coli ATCC 11229 (H2O2 680.5 ppm) it was 0.433 and 0.440 and 0.426 and 0.430 and 0.453 and 0.456 and 0.436 and 0.446.
